Test results reported in patent publication US4808584A, “Quinolinecarboxylic acid derivatives and antibacterial agent containing the same” (Kanebo, Ltd., priority 1987, dated 1989).
Converted amounts (≈) assume the structure as drawn.

Assays:
[1] = tested on: Pseudomonas aeruginosa E-2; assay: Effect on treatment of general infectious disease; format: in vivo, ddY male mice; details: E2, 168 h, P. aeruginosa E-2, 1.6×10^4 CFU/mouse i.p., oral one hour after infection, survival after one week
Experimental: Pseudomonas aeruginosa E-2 (1.6×10^4 CFU/mouse)
(§1) The test microorganisms were subjected to standing culture in Trypto-Soya Agar "Nissui" (made by Nissui Seiyaku K.K., Japan) at 37° C. for 16 to 18 hours. The culture was then diluted with PBS (Dulbecco's phosphate buffered saline) and mixed with an equivalent amount of 10% (w/v) Mucin (BACTO MUCIN BACTERIOLOGICAL, made by Difco Co.) to prepare a microorganism solution. The thus prepared microorganism solution (0.5 ml each) was intraperitoneally innoculated to ddY male mice (4 weeks age, weighing 20-22 g, 5 mice in each group), to infect the animals. One hour after the infection, the compound (B) of the present invention dissolved in sterilized distilled water or ofloxacin suspended in 0.5% (w/v) aqueous sodium carboxymethyl cellulose solution was orally adiministered to mice.
(§2) The mice were daily observed for one week, and from the survival number of mice after one week, the 50% effective dose (ED50) was calculated by Weil method.

Escherichia coli KC-14 = assay: Effect on treatment of general infectious disease; format: in vivo, ddY male mice; details: KC14, 168 h, E. coli KC-14, 1.2×10^4 CFU/mouse i.p., oral one hour after infection, survival after one week
Experimental: Escherichia coli KC-14 (1.2×10^4 CFU/mouse)
as §1, §2

[2] = tested on: Klebsiella pneumoniae PCI 602; assay: Minimum inhibitory concentration (MIC); format: cell-based; details: Klebsiella pneumoniae, PCI602, Klebsiella pneumoniae PCI 602, Gram -; read-out: Minimum inhibitory concentration (MIC)
Method in brief: (§3)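 Test compounds were dissolved at 5000 μg/ml (stock) in 0.1N aqueous KOH or in sterilized distilled water, then diluted with sterile water to a 1000 μg/ml standard solution. MICs were determined by the Japan Society of Chemotherapy standard method.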

Proteus vulgaris OX-19 = assay: Minimum inhibitory concentration (MIC); format: cell-based; details: OX19; Proteus vulgaris OX-19, Gram -; read-out: Minimum inhibitory concentration (MIC)
Method in brief: as §3

[3] = tested on: Staphylococcus aureus IID 803; assay: Effect on treatment of general infectious disease; format: in vivo, ddY male mice; details: IID803, 168 h, S. aureus IID 803, 1.0×10^6 CFU/mouse i.p., oral one hour after infection, survival after one week
Experimental: Staphylococcus aureus IID 803 (1.0×10^6 CFU/mouse)
as §1, §2

bacteria = details: prior art, U.S. Pat. No. 4,382,892; cited from earlier work

In the case of `CC1COc2c(N3CCN(C)CC3)c(F)cc3c(=O)c(C(=O)O)cn1c23` (racemic) [Ofloxacin, reference compound], the ED50 [1] is reported as 22.9 mg/kg, the ED50 (Escherichia coli KC-14) is reported as 1.1 mg/kg and the MIC [2] is reported as 0.05 µg/mL (≈ 0.138 µM). The MIC (Proteus vulgaris OX-19) was 0.05 µg/mL (≈ 0.138 µM), the ED50 [3] was 11.5 mg/kg and the “antibacterial activity (in words)” value (bacteria) was “excellent antibacterial activity”.
